How the values were obtained:
[1] = tested on: Sinapis alba, Stellaria media, Chrysanthemum segetum, and Lolium multiflorum; assay: Pre-emergence effect on weeds (greenhouse pot test, visual scoring); format: in vivo; conditions: applied pre-emergence at 0.3 kg to 0.005 kg of active ingredient per hectare; scored visually after 3 to 4 weeks vs untreated controls
Source text: Seeds or rhizome pieces of monocotyledonous and dicotyledonous weed plants are placed in sandy loam soil in plastic pots and covered with soil. The compounds of the formula (I) or salts thereof according to the invention which have been formulated in the form of wettable powders or emulsion concentrates are then applied to the surface of the soil cover in the form of aqueous suspensions or emulsions at an application rate of […] of water/ha (converted), in various dosages.
After the treatment, the pots are placed in a greenhouse and kept under good growth conditions for the weeds. After the test plants have emerged after a period of 3 to 4 weeks, the damage to the plants or the negative effect on the emergence is scored visually by comparison with untreated controls. As shown by the test results, the compounds according to the invention have a good herbicidal pre-emergence activity against a broad spectrum of grass weeds and broad-leaved weeds.

[2] = tested on: Sinapis alba, Stellaria media, Chrysanthemum segetum, and Lolium multiflorum; assay: Post-emergence effect on weeds (greenhouse pot test, visual scoring); format: in vivo; conditions: applied post-emergence (three-leaf stage) at 0.3 kg to 0.005 kg of active ingredient per hectare; scored visually after about 3 to 4 weeks vs untreated controls
Method: Seeds or rhizome pieces of monocotyledonous and dicotyledonous weeds are placed in sandy loam soil in plastic pots, covered with soil and grown in a greenhouse under good growth conditions. Three weeks after sowing, the test plants are treated in the three-leaf stage. The compounds of the formula (I) or salts thereof according to the invention which have been formulated as wettable powders or as emulsion concentrates are sprayed in various dosages onto the green parts of the plants at an application rate of 600 to 800 l of water/ha (converted). After the test plants have remained in the greenhouse for about 3 to 4 weeks under ideal growth conditions, the effect of the preparations is scored visually by comparison with untreated controls. The agents according to the invention also have a good herbicidal post-emergence activity against a broad range of economically important grass weeds and broad-leaved weeds.

Row | melting point | SMILES | herbicidal activity, pre-emergence [1] | herbicidal activity, post-emergence [2]
1 |  | COc1cc(OC)nc(NC(=O)NS(=O)(=O)c2sccc2N=C(C)N(C)C)n1 [Example 9-1] | very good herbicidal activity | very good herbicidal activity
2 |  | COc1cc(OC)nc(NC(=O)[N-]S(=O)(=O)c2c(N=CN(C)C)c(C)nn2C)n1.[Na+] [Example 10-2] | very good herbicidal activity | very good herbicidal activity
3 |  | COc1cc(OC)nc(NC(=O)[N-]S(=O)(=O)c2sccc2N=C(C(C)C)N(C)C)n1.[Na+] [Example 9-4] | very good herbicidal activity | very good herbicidal activity
4 |  | COc1cc(OC)nc(NC(=O)NS(=O)(=O)c2ncccc2N=C(C)N(C)C)n1 [Example 4-18] | very good herbicidal activity | very good herbicidal activity
5 |  | CCN(C=Nc1ccccc1S(=O)(=O)NC(=O)Nc1nc(OC)cc(OC)n1)CC [Example 1-5] | very good herbicidal activity | very good herbicidal activity
6 |  | COc1cc(OC)nc(NC(=O)NS(=O)(=O)c2sccc2N=CN(C)C)n1 [Example 9-5] | very good herbicidal activity | very good herbicidal activity
7 |  | CCN(C=Nc1ccc(C(=O)OC)c(S(=O)(=O)NC(=O)Nc2nc(OC)cc(OC)n2)c1)CC [Example 2-48] | very good herbicidal activity | very good herbicidal activity
8 |  | COc1cc(OC)nc(NC(=O)[N-]S(=O)(=O)c2ccccc2N=CN(C)C)n1.[Na+] [Example 1-14] | very good herbicidal activity | very good herbicidal activity
9 |  | COC(=O)c1ccc(N=CN2CCCCC2)cc1S(=O)(=O)NC(=O)Nc1nc(OC)cc(OC)n1 [Example 2-37] | very good herbicidal activity | very good herbicidal activity
10 |  | COC(=O)c1ccc(N=C(C(C)C)N(C)C)cc1S(=O)(=O)NC(=O)Nc1nc(OC)cc(OC)n1 [Example 2-26] | very good herbicidal activity | very good herbicidal activity
11 |  | COc1cc(OC)nc(NC(=O)NS(=O)(=O)c2cc(N=CN(C)C)ccc2S(C)(=O)=O)n1 [Example 2-21] | very good herbicidal activity | very good herbicidal activity
12 | 140 to 141 °C (dec.) | COc1cc(OC)nc(NC(=O)NS(=O)(=O)c2cc(N=CN(C)C)ccc2C(=O)N(C)C)n1 [Example 2-15, N,N-dimethyl-2-[[[[(4,6-dimethoxypyrimidin-2-yl)-amino]carbonyl]amino]sulfonyl]-4-(2-dimethylamino-1-azaethenyl)-benzamide] | very good herbicidal activity | very good herbicidal activity
13 |  | COc1cc(OC)nc(NC(=O)NS(=O)(=O)c2c(N=CN(C)C)c(C)nn2C)n1 [Example 10-1] | very good herbicidal activity | very good herbicidal activity
14 |  | CCS(=O)(=O)c1ccc(N=CN(C)C)cc1S(=O)(=O)NC(=O)Nc1nc(OC)cc(OC)n1 [Example 2-22] | very good herbicidal activity | very good herbicidal activity
15 |  | COc1cc(OC)nc(NC(=O)NS(=O)(=O)c2sccc2N=C(C(C)C)N(C)C)n1 [Example 9-3] | very good herbicidal activity | very good herbicidal activity
16 | 73 to 75 °C | COC(=O)c1ccc(N=CN(C)C)cc1S(=O)(=O)NC(=O)Nc1nc(OC)cc(OC)n1 [Example 2-10, methyl 2-[[[[(4,6-dimethoxypyrimidin-2-yl)amino]carbonyl]amino]sulfonyl]-4-(2-dimethylamino-1-azaethenyl)-benzoate] | very good herbicidal activity | very good herbicidal activity
17 |  | COC(=O)c1ccc(N=CN(C)C)cc1S(=O)(=O)NC(=O)Nc1nc(Cl)cc(OC)n1 [Example 2-39] | very good herbicidal activity | very good herbicidal activity
18 |  | CCC(=Nc1cccnc1S(=O)(=O)NC(=O)Nc1nc(OC)cc(OC)n1)N(C)C [Example 4-19] | very good herbicidal activity | very good herbicidal activity
19 |  | COc1cc(OC)nc(NC(=O)[N-]S(=O)(=O)c2sccc2N=C(C)N(C)C)n1.[Na+] [Example 9-2] | very good herbicidal activity | very good herbicidal activity
20 |  | COc1cc(OC)nc(NC(=O)NS(=O)(=O)c2ncccc2N=CN(C)C)n1 [Example 4-2] |  | very good herbicidal activity
21 | 209 to 210 °C (dec.) | COc1cc(OC)nc(NC(=O)NS(=O)(=O)c2ccccc2N=CN(C)C)n1 [Example 1-1, N-[(4,6-dimethoxypyrimidin-2-yl)aminocarbonyl]-2-(2-dimethylamino-1-azaethenyl)benzenesulfonamide] | very good herbicidal activity | very good herbicidal activity
22 |  | CCN(C=Nc1ccc(C(=O)OC)c(S(=O)(=O)[N-]C(=O)Nc2nc(OC)cc(OC)n2)c1)CC.[Na+] [Example 2-49] | very good herbicidal activity | very good herbicidal activity
23 |  | CCN(C=Nc1ccc(S(=O)(=O)CC)c(S(=O)(=O)NC(=O)Nc2nc(OC)cc(OC)n2)c1)CC [Example 2-50] | very good herbicidal activity | very good herbicidal activity
24 |  | COc1cc(OC)nc(NC(=O)[N-]S(=O)(=O)c2sccc2N=CN(C)C)n1.[Na+] [Example 9-6] | very good herbicidal activity | very good herbicidal activity
25 |  | COC(=O)c1ccc(N=CN2CCCC2)cc1S(=O)(=O)NC(=O)Nc1nc(OC)cc(OC)n1 [Example 2-36] | very good herbicidal activity | very good herbicidal activity
26 |  | COc1cc(OC)nc(NC(=O)NS(=O)(=O)c2ncccc2N=C(C(C)C)N(C)C)n1 [Example 4-17] | very good herbicidal activity | very good herbicidal activity
27 |  | COC(=O)c1ccc(N=CN(C)C)cc1S(=O)(=O)NC(=O)Nc1nc(C)nc(OC)n1 [Example 2-41] | very good herbicidal activity | very good herbicidal activity
28 |  | COc1cc(OC)nc(NC(=O)NS(=O)(=O)c2cccc(N=CN(C)C)c2)n1 [Example 2-47] | very good herbicidal activity | very good herbicidal activity
29 |  | CCC(=Nc1ccc(C(=O)OC)c(S(=O)(=O)NC(=O)Nc2nc(OC)cc(OC)n2)c1)N(C)C [Example 2-24] | very good herbicidal activity | very good herbicidal activity

Reference: patent publication US6410482B1, “(Het) arylsulfonylureas having an amino function, their presentation and their use as herbicides and plant growth regulators” (Hoechst Schering AgrEvo GmbH, priority 1996, dated 2002)
